Measurements published in the supplement of paper PMC11208160.

Assay: recombinant UMI read abundance after kanamycin selection (control-corrected) (log10(CPM+1)); higher = more efficient recombination; extreme values may be limits of the assay; sequences stand for … in AGTGCAGAGAAAATCGGCCAGTTTTCTCTGCCTGCAGTCCGCATGCCGTGGGACCCCTTGGGTTCTAACCTGTTGCCTAGATTTATGCAGCGGACTGCCTTTCTCCCAAAGTGATAAACCGG…AGGTTGGTTTCACT; site = the 11-nt donor
Procedure, shortened: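 Values, expressed as log10(CPM+1), derive from recombinant UMI counts converted to CPM, averaged across replicates and scaled by control-derived factors. Plating was with IPTG (0.07 mM) plus kanamycin or unselected, two replicates each. The screen pooled donor and donor-binding-loop pairs for the IS621 bridge recombinase in Escherichia coli.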
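Note: IS621 bridge recombinase in Escherichia coli cells against a fixed T5 target plasmid.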

AGCCTGGCATGGACCGGTTTTCCCGGTAATCCGTATTTGAC (site AGCCTGGCTGT)
recombinant UMI read abundance (log10): 0

AGCCTTTCATGGACCGGTTTTCCCGGTAATCCGTATTTGAA (site AGCCTTTCTAT)
recombinant UMI read abundance (log10): 0

AGCCTTTCATGGACCGGTTTTCCCGGTAATCCGTATTTGAA (site AGCCTTTCTCT)
recombinant UMI read abundance (log10): 0.00501

AGCCTTTCATGGACCGGTTTTCCCGGTAATCCGTATTTGAA (site AGCCTTTCTGT)
recombinant UMI read abundance (log10): 0

AGCCTTTCATGGACCGGTTTTCCCGGTAATCCGTATTTGAA (site AGCCTTTCTTT)
recombinant UMI read abundance (log10): 0

AGCCTTTCATGGACCGGTTTTCCCGGTAATCCGTATTTGAC (site AACCTTTCTGT)
recombinant UMI read abundance (log10): 0

AGCCTTTCATGGACCGGTTTTCCCGGTAATCCGTATTTGAC (site ACCCTTTCTGT)
recombinant UMI read abundance (log10): 0

AGCCTTTCATGGACCGGTTTTCCCGGTAATCCGTATTTGAC (site AGACTTTCTGT)
recombinant UMI read abundance (log10): 0

AGCCTTTCATGGACCGGTTTTCCCGGTAATCCGTATTTGAC (site AGCATTTCTGT)
recombinant UMI read abundance (log10): 0.00674

AGCCTTTCATGGACCGGTTTTCCCGGTAATCCGTATTTGAC (site AGCCATTCTGT)
recombinant UMI read abundance (log10): 0

AGCCTTTCATGGACCGGTTTTCCCGGTAATCCGTATTTGAC (site AGCCCTTCTGT)
recombinant UMI read abundance (log10): 0

AGCCTTTCATGGACCGGTTTTCCCGGTAATCCGTATTTGAC (site AGCCGTTCTGT)
recombinant UMI read abundance (log10): 0

AGCCTTTCATGGACCGGTTTTCCCGGTAATCCGTATTTGAC (site AGCCTATCTGT)
recombinant UMI read abundance (log10): 1.73

AGCCTTTCATGGACCGGTTTTCCCGGTAATCCGTATTTGAC (site AGCCTCTCTGT)
recombinant UMI read abundance (log10): 0

AGCCTTTCATGGACCGGTTTTCCCGGTAATCCGTATTTGAC (site AGCCTGTCTGT)
recombinant UMI read abundance (log10): 0

AGCCTTTCATGGACCGGTTTTCCCGGTAATCCGTATTTGAC (site AGCCTTACTGT)
recombinant UMI read abundance (log10): 0

AGCCTTTCATGGACCGGTTTTCCCGGTAATCCGTATTTGAC (site AGCCTTCCTGT)
recombinant UMI read abundance (log10): 0

AGCCTTTCATGGACCGGTTTTCCCGGTAATCCGTATTTGAC (site AGCCTTGCTGT)
recombinant UMI read abundance (log10): 0

AGCCTTTCATGGACCGGTTTTCCCGGTAATCCGTATTTGAC (site AGCCTTTCTAT)
recombinant UMI read abundance (log10): 0

AGCCTTTCATGGACCGGTTTTCCCGGTAATCCGTATTTGAC (site AGCCTTTCTCT)
recombinant UMI read abundance (log10): 0.00414

AGCCTTTCATGGACCGGTTTTCCCGGTAATCCGTATTTGAC (site AGCCTTTCTGA)
recombinant UMI read abundance (log10): 0

AGCCTTTCATGGACCGGTTTTCCCGGTAATCCGTATTTGAC (site AGCCTTTCTGC)
recombinant UMI read abundance (log10): 0

AGCCTTTCATGGACCGGTTTTCCCGGTAATCCGTATTTGAC (site AGCCTTTCTGG)
recombinant UMI read abundance (log10): 0

AGCCTTTCATGGACCGGTTTTCCCGGTAATCCGTATTTGAC (site AGCCTTTCTGT)
recombinant UMI read abundance (log10): 0

AGCCTTTCATGGACCGGTTTTCCCGGTAATCCGTATTTGAC (site AGCCTTTCTTT)
recombinant UMI read abundance (log10): 0

AGCCTTTCATGGACCGGTTTTCCCGGTAATCCGTATTTGAC (site AGCGTTTCTGT)
recombinant UMI read abundance (log10): 0

AGCCTTTCATGGACCGGTTTTCCCGGTAATCCGTATTTGAC (site AGCTTTTCTGT)
recombinant UMI read abundance (log10): 0

AGCCTTTCATGGACCGGTTTTCCCGGTAATCCGTATTTGAC (site AGGCTTTCTGT)
recombinant UMI read abundance (log10): 0

AGCCTTTCATGGACCGGTTTTCCCGGTAATCCGTATTTGAC (site AGTCTTTCTGT)
recombinant UMI read abundance (log10): 0

AGCCTTTCATGGACCGGTTTTCCCGGTAATCCGTATTTGAC (site ATCCTTTCTGT)
recombinant UMI read abundance (log10): 0

AGCCTTTCATGGACCGGTTTTCCCGGTAATCCGTATTTGAC (site CGCCTTTCTGT)
recombinant UMI read abundance (log10): 0

AGCCTTTCATGGACCGGTTTTCCCGGTAATCCGTATTTGAC (site GGCCTTTCTGT)
recombinant UMI read abundance (log10): 0

AGCCTTTCATGGACCGGTTTTCCCGGTAATCCGTATTTGAC (site TGCCTTTCTGT)
recombinant UMI read abundance (log10): 0

AGCCTTTCATGGACCGGTTTTCCCGGTAATCCGTATTTGCC (site AGCCTTTCTGA)
recombinant UMI read abundance (log10): 0

AGCCTTTCATGGACCGGTTTTCCCGGTAATCCGTATTTGCC (site AGCCTTTCTGC)
recombinant UMI read abundance (log10): 0

AGCCTTTCATGGACCGGTTTTCCCGGTAATCCGTATTTGCC (site AGCCTTTCTGG)
recombinant UMI read abundance (log10): 1.05

AGCCTTTCATGGACCGGTTTTCCCGGTAATCCGTATTTGCC (site AGCCTTTCTGT)
recombinant UMI read abundance (log10): 0

AGCGCAGCATGGACCGGTTTTCCCGGTAATCCGTATTTGCG (site AGCGCAGCTCG)
recombinant UMI read abundance (log10): 1.01

AGCGCAGCATGGACCGGTTTTCCCGGTAATCCGTATTTGGG (site AGCACAGCTCC)
recombinant UMI read abundance (log10): 0

AGCGCAGCATGGACCGGTTTTCCCGGTAATCCGTATTTGGG (site AGCCCAGCTCC)
recombinant UMI read abundance (log10): 0.0111

AGCGCAGCATGGACCGGTTTTCCCGGTAATCCGTATTTGGG (site AGCGCAGCTCC)
recombinant UMI read abundance (log10): 0.0103

AGCGCAGCATGGACCGGTTTTCCCGGTAATCCGTATTTGGG (site AGCTCAGCTCC)
recombinant UMI read abundance (log10): 0.0119

AGCGCGACATGGACCGGTTTTCCCGGTAATCCGTATTTGAG (site AGCGCGACTCT)
recombinant UMI read abundance (log10): 1.27

AGCGGTCCATGGACCGGTTTTCCCGGTAATCCGTATTTGAC (site AGCGGTCCTGT)
recombinant UMI read abundance (log10): 0

AGCTAACCATGGACCGGTTTTCCCGGTAATCCGTATTTGAA (site AGCTAACCTTT)
recombinant UMI read abundance (log10): 0.00558

AGCTAACCATGGACCGGTTTTCCCGGTAATCCGTATTTGTG (site AGCTAACCTCA)
recombinant UMI read abundance (log10): 0.00444

AGCTACGCATGGACCGGTTTTCCCGGTAATCCGTATTTGGG (site AGCTACGCTCC)
recombinant UMI read abundance (log10): 0.0157

AGCTATGCATGGACCGGTTTTCCCGGTAATCCGTATTTGAT (site AGCTATGCTAT)
recombinant UMI read abundance (log10): 1.79

AGCTCGGCATGGACCGGTTTTCCCGGTAATCCGTATTTGGG (site AGCTCAGCTCC)
recombinant UMI read abundance (log10): 0.0161

AGCTCGGCATGGACCGGTTTTCCCGGTAATCCGTATTTGGG (site AGCTCCGCTCC)
recombinant UMI read abundance (log10): 0.0225

AGCTCGGCATGGACCGGTTTTCCCGGTAATCCGTATTTGGG (site AGCTCGGCTCC)
recombinant UMI read abundance (log10): 0

AGCTCGGCATGGACCGGTTTTCCCGGTAATCCGTATTTGGG (site AGCTCTGCTCC)
recombinant UMI read abundance (log10): 0

AGCTCTACATGGACCGGTTTTCCCGGTAATCCGTATTTGAA (site AGCTCTACTTT)
recombinant UMI read abundance (log10): 0

AGCTCTGCATGGACCGGTTTTCCCGGTAATCCGTATTTGGT (site AGCTCTGCTAC)
recombinant UMI read abundance (log10): 1.36

AGCTGAGCATGGACCGGTTTTCCCGGTAATCCGTATTTGCC (site AGCTGAGCTGG)
recombinant UMI read abundance (log10): 0.908

AGCTTGCCATGGACCGGTTTTCCCGGTAATCCGTATTTGGC (site AGCTTGCCTGC)
recombinant UMI read abundance (log10): 0

AGCTTGTCATGGACCGGTTTTCCCGGTAATCCGTATTTGAG (site AGCTTGTCTCT)
recombinant UMI read abundance (log10): 1.62

AGGAAATCATGGACCGGTTTTCCCGGTAATCCGTATTTGCA (site AGGAAATCTTG)
recombinant UMI read abundance (log10): 1.9

AGGAAATCATGGACCGGTTTTCCCGGTAATCCGTATTTGCA (site AGGAAGACTTG)
recombinant UMI read abundance (log10): 0

AGGAAATCATGGACCGGTTTTCCCGGTAATCCGTATTTGGT (site AGGAAATCTAC)
recombinant UMI read abundance (log10): 1.73

AGGAAGACATGGACCGGTTTTCCCGGTAATCCGTATTTGCG (site AGGAAGACTAG)
recombinant UMI read abundance (log10): 0.0723

AGGAAGACATGGACCGGTTTTCCCGGTAATCCGTATTTGCG (site AGGAAGACTCG)
recombinant UMI read abundance (log10): 2.32

AGGAAGACATGGACCGGTTTTCCCGGTAATCCGTATTTGCG (site AGGAAGACTGG)
recombinant UMI read abundance (log10): 0

AGGAAGACATGGACCGGTTTTCCCGGTAATCCGTATTTGCG (site AGGAAGACTTG)
recombinant UMI read abundance (log10): 1.73

AGGAATACATGGACCGGTTTTCCCGGTAATCCGTATTTGCT (site AGGAAGACTTG)
recombinant UMI read abundance (log10): 0

AGGAATACATGGACCGGTTTTCCCGGTAATCCGTATTTGCT (site AGGAATACTAG)
recombinant UMI read abundance (log10): 2.18

AGGAATCCATGGACCGGTTTTCCCGGTAATCCGTATTTGTA (site AGGAATCCTTA)
recombinant UMI read abundance (log10): 0.615

AGGAATCCATGGACCGGTTTTCCCGGTAATCCGTATTTGTA (site CGGAATCCTAA)
recombinant UMI read abundance (log10): 0.00925

AGGACACCATGGACCGGTTTTCCCGGTAATCCGTATTTGTA (site AGGACACCTTA)
recombinant UMI read abundance (log10): 0.189

AGGACATCATGGACCGGTTTTCCCGGTAATCCGTATTTGCT (site AGGACATCTAG)
recombinant UMI read abundance (log10): 1.48

AGGACATCATGGACCGGTTTTCCCGGTAATCCGTATTTGCT (site CGGACATCTAG)
recombinant UMI read abundance (log10): 1.01

AGGACATCATGGACCGGTTTTCCCGGTAATCCGTATTTGCT (site GGGACATCTAG)
recombinant UMI read abundance (log10): 0.0498

AGGACATCATGGACCGGTTTTCCCGGTAATCCGTATTTGCT (site TGGACATCTAG)
recombinant UMI read abundance (log10): 1.15

AGGACCCCATGGACCGGTTTTCCCGGTAATCCGTATTTGGT (site AGGACCCCTAC)
recombinant UMI read abundance (log10): 0.297

AGGACGGCATGGACCGGTTTTCCCGGTAATCCGTATTTGAA (site AGGACGGCTTT)
recombinant UMI read abundance (log10): 1.73
